This passage reports IC50 results from ChEMBL document CHEMBL3864193 (Bioorg Med Chem, 2016).

As a reminder, the IC50 is the concentration that gives 50% inhibition.

Assay [1] has as its target Vascular endothelial growth factor receptor 2 (Homo sapiens, UniProt P35968). As to the kind of experiment: Inhibition of VEGFR2 (unknown origin) by mobility shift/LanthaScreen assay. A general note: TR-FRET usually uses a lanthanide donor and a delayed reading to cut background.
Assay [2] in a line: cells. The note with it: Homo sapiens, PC-3, 72 h.
Description: Cytotoxicity against human PC3 cells after 72 hrs by MTT assay
Assay [3] can be described thus: cells. The note with it: Homo sapiens, MCF7, 72 h.
Description: Cytotoxicity against human MCF7 cells after 72 hrs by MTT assay
The nature of assay [4]: Cytotoxicity against human A549 cells after 72 hrs by MTT assay. It is filed as functional, cell-based. The note with it: A549, 72 h. In general terms: Tetrazolium dyes change colour on reduction, which living cells bring about.

Sequence of Vascular endothelial growth factor receptor 2 (P35968 whole entry): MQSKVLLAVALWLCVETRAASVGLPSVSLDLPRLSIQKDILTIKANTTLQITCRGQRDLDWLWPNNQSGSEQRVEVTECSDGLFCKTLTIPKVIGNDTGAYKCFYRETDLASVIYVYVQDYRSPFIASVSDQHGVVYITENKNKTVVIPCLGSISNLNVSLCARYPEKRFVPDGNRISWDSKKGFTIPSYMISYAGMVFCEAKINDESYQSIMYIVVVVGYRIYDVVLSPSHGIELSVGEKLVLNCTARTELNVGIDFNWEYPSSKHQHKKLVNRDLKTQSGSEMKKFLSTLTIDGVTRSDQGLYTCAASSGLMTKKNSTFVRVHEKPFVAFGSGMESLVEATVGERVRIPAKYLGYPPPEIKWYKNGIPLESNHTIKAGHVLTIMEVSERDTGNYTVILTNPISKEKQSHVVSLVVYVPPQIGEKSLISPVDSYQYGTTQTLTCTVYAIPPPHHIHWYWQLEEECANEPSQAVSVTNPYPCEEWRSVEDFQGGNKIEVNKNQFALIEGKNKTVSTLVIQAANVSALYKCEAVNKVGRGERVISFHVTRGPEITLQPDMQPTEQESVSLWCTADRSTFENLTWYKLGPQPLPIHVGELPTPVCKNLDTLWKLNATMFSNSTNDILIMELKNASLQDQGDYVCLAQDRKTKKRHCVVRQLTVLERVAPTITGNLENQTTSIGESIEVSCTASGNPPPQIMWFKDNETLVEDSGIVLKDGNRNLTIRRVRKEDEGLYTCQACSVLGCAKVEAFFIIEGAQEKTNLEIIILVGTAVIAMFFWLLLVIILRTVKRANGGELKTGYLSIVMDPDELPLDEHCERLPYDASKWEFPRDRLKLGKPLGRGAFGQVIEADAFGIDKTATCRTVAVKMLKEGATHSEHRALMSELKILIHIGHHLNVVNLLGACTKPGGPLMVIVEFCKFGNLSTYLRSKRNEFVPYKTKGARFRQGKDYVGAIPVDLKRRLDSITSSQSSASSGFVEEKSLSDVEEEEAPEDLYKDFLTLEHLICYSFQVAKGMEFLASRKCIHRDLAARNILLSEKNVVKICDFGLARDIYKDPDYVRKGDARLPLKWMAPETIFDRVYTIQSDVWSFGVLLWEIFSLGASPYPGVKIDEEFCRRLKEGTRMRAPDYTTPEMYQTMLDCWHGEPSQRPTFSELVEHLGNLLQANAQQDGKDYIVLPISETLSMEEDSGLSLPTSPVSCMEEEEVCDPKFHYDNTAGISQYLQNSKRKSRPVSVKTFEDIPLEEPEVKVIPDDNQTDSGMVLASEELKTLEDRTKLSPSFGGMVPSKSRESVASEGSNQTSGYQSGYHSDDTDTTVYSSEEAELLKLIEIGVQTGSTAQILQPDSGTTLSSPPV

On to `CCc1ccc(-c2cc(C(=O)Nc3ccc(Oc4ccnc(C(=O)NC)c4)c(F)c3)ncn2)cc1`, for which the IC50 in assay [1] turned out to be 1.2 µM; in the assay “cells [2]”, 15.6 µM; in the assay “cells [3]”, 7.63 µM; in assay [4], 3.39 µM.
Take `CNC(=O)c1cc(Oc2ccc(NC(=O)c3cc(-c4ccccc4)ncn3)cc2F)ccn1`: the IC50 in the assay “cells [2]” was found to be 44.3 µM; in “cells [3]”, 32.4 µM; in assay [4], 23.2 µM.
The matching figures for `CNC(=O)c1cc(Oc2ccc(NC(=O)c3cc(-c4ccc(F)cc4)ncn3)cc2F)ccn1`: more than 100 µM, more than 100 µM and more than 100 µM.
Taken in the same sequence, the figures for `CNC(=O)c1cc(Oc2ccc(NC(=O)c3cc(-c4ccc(OC)cc4)ncn3)cc2F)ccn1` were 56.2 µM, 46.2 µM and 34.5 µM.
Take `CNC(=O)c1cc(Oc2ccc(NC(=O)c3cc(-c4ccc(F)cc4)ncn3)cc2)ccn1`: the IC50 (in the assay “cells [2]”; in the assay “cells [3]”; in assay [4]) was more than 100 µM each time.
For `CNC(=O)c1cc(Oc2ccc(NC(=O)c3nccc(-c4ccc([N+](=O)[O-])cc4)n3)cc2)ccn1`, the concentration for half-maximal inhibition (IC50) (in the assay “cells [2]”; in “cells [3]”; in assay [4]) was more than 100 µM in each case.
`CCc1ccc(-c2cc(C(=O)Nc3ccc(Oc4ccnc(C(=O)NC)c4)cc3)ncn2)cc1`: the concentration for half-maximal inhibition (IC50) in assay [1] came to 3.6 µM; in the assay “cells [2]”, 29.3 µM; in “cells [3]”, 6.35 µM; in assay [4], 13.3 µM.
Turning to `CNC(=O)c1cc(Oc2ccc(NC(=O)c3cc(-c4ccccc4)ncn3)cc2)ccn1`, the half-maximal inhibitory concentration (IC50) in the assay “cells [2]” came out at 44.2 µM; in the assay “cells [3]”, 18.2 µM; in assay [4] it was 27.1 µM.
Taken in the same sequence, the figures for `CNC(=O)c1cc(Oc2ccc(NC(=O)c3nccc(-c4ccc(C)cc4)n3)cc2F)ccn1` were 28.4 µM, 69.2 µM and 33.2 µM.
`CNC(=O)c1cc(Oc2ccc(NC(=O)c3cc(-c4ccc(OC)cc4)ncn3)cc2)ccn1`: the IC50 in “cells [2]” turned out to be 38.8 µM; in the assay “cells [3]”, 29.2 µM; in assay [4], 13.5 µM.
Taken in the same sequence, the figures for `CNC(=O)c1cc(Oc2ccc(NC(=O)c3cc(-c4ccc(Cl)cc4)ncn3)cc2)ccn1` were more than 100 µM, more than 100 µM and more than 100 µM.
Taken in the same sequence, the figures for `CNC(=O)c1cc(Oc2ccc(NC(=O)c3nccc(-c4ccc(OC)cc4)n3)cc2)ccn1` were 14.2 µM, 35.2 µM and 11.1 µM.
On to `CNC(=O)c1cc(Oc2ccc(NC(=O)c3nccc(-c4cccc(Cl)c4)n3)cc2)ccn1`, for which the IC50 in “cells [2]” is 20.8 µM; in “cells [3]”, more than 100 µM; in assay [4], more than 100 µM.
Consider `CNC(=O)c1cc(Oc2ccc(NC(=O)c3cc(-c4ccc(C)cc4)ncn3)cc2)ccn1`, for which the IC50 in the assay “cells [2]” is more than 100 µM; in the assay “cells [3]”, 34.6 µM; in assay [4], more than 100 µM.
With `CNC(=O)c1cc(Oc2ccc(NC(=O)c3nccc(-c4ccc(C)cc4)n3)cc2)ccn1`, the IC50 in the assay “cells [2]” is 13.1 µM; in the assay “cells [3]” it was 44.2 µM; in assay [4] it was 28.4 µM.
Take `CNC(=O)c1cc(Oc2ccc(NC(=O)c3nccc(-c4ccccc4)n3)cc2)ccn1`: the IC50 in the assay “cells [2]” was determined as 7.31 µM; in the assay “cells [3]” it was 39.1 µM; in assay [4] it was 26.2 µM.
The matching figures for `CNC(=O)c1cc(Oc2ccc(NC(=O)c3cc(-c4ccc(C(F)(F)F)cc4)ncn3)cc2)ccn1`: more than 100 µM, more than 100 µM and more than 100 µM.
The matching figures for `CNC(=O)c1cc(Oc2ccc(NC(=O)c3cc(-c4ccc(C(F)(F)F)cc4)ncn3)cc2F)ccn1`: more than 100 µM, more than 100 µM and more than 100 µM.
The matching figures for `CNC(=O)c1cc(Oc2ccc(NC(=O)c3nccc(-c4ccc(OC)cc4)n3)cc2F)ccn1`: 24.3 µM, more than 100 µM and 16.6 µM.
`CNC(=O)c1cc(Oc2ccc(NC(=O)c3cc(-c4ccc(Br)cc4)ncn3)cc2)ccn1`: the IC50 (in the assay “cells [2]”; in the assay “cells [3]”; in assay [4]) was more than 100 µM each time.
`CNC(=O)c1cc(Oc2ccc(NC(=O)c3cc(-c4ccc(C)cc4)ncn3)cc2F)ccn1`: the figures for the half-maximal inhibitory concentration (IC50) (in the assay “cells [2]”; in “cells [3]”; in assay [4]) were 40.2 µM, 19.2 µM and 13.2 µM, respectively.
`CNC(=O)c1cc(Oc2ccc(NC(=O)c3cc(-c4ccc(Cl)cc4)ncn3)cc2F)ccn1`: the concentration for half-maximal inhibition (IC50) (in “cells [2]”; in “cells [3]”; in assay [4]) was more than 100 µM in each case.
In the case of `CNC(=O)c1cc(Oc2ccc(NC(=O)c3cc(-c4ccc(Br)cc4)ncn3)cc2F)ccn1`, the IC50 (in “cells [2]”; in “cells [3]”; in assay [4]) was more than 100 µM in each case.
